Experimental data published in patent US20040241225A1, “Modulation of vitamin storage” (priority 2001, published 2004).

How the values were obtained:
[1] = type: physicochemical
Protocol: An extraction method was developed which gave the maximum recovery of TP. The stability of TP to the extraction methodology was tested by subjecting pure TP to the extraction protocol, virtually 100% recovery was obtained.

[2] = Solubility of α-tocopheryl phosphate; type: physicochemical
[3] = Liver TP level 24 h after a single dose of TP or tocopheryl acetate, quantitated by ESMS; details: rat, 24 h after administration

resistance to oxidation ([1]; conditions of the standard colorimetric α-tocopherol analysis): resistant to oxidation
solubility in water ([2]; high pH): soluble
solubility in organic solvents ([2]; low pH): soluble
liver TP ([3]; i.v., single dose 3 mg/kg): 17 ug ug/gm
liver TP ([3]; i.v., single dose 10 mg/kg): 24 ug ug/gm
liver TP ([3]; i.v., single dose 30 mg/kg): 28 ug ug/gm
liver TP ([3]; i.v., single dose 100 mg/kg): 27 ug ug/gm
liver TP ([3]; oral, single dose 10 mg/kg): 19.18 ug ug/gm
liver TP ([3]; oral, single dose 30 mg/kg): 18.35 ug ug/gm
Substance: α-tocopheryl phosphate [TP]
resistance to hydrolysis ([1]; alkaline and acid hydrolysis conditions of standard α-tocopherol extraction procedures): resistant to all of the alkaline and acid hydrolysis conditions
cleavage of the phosphate bond ([1]; refluxing under strongly alkaline or acidic conditions in excess of 24 hours): does not lead to any cleavage of the phosphate bond
